The results in this text go back to patent publication US20260007678A1, “COMBINATION OF ALLOSTERIC AND ORTHOSTERIC EGFR INHIBITORS FOR THE TREATMENT OF CANCER” (Hoffmann-La Roche Inc., priority 2022, published 2026).

One series has as its target T1, EGFR^L858R (Homo sapiens, UniProt P00533, L858R).
T1 construct: expressing WT EGFR, EGFR^L858R or EGFR^L858R/T790M; host or cells: NCI-H3255
The series is described as follows: HTRF cellular assay in human cancer cells H3255. The class given is cell-based. The note with it: read-out: IC50 H3255 EGFR LR. As to the method: (§1) NCI-H3255 cells were obtained from the NCI (#CVCL_6831). Cells were maintained in a humidified incubator at 37° C. and 5% CO2. […] Verification of cell line identities and absence of cross-contaminations by other cell lines was performed through Short Tandem Repeats-PCR analysis (only human cell lines) and MALDI-TOF analysis. […] All cell lines were used for no more than 20 passages after thawing for all described experiments.
Control wells with medium only were also prepared. […] Plates were incubated at 37° C. for 4 hours. […] The cells were eventually lysed in HTRF lysis buffer provided by the kit (see below) and stored at −80° C. until further use. HTRF assay for pEGFR (CisBio #64EG1PEH) or pERK (CisBio #64AERPEH) was then performed according to the manufacturer's instructions.

Another series deals with T2, EGFR^L858R/T790M (Homo sapiens, UniProt P00533, L858R/T790M).
T2 construct: expressing WT EGFR, EGFR^L858R or EGFR^L858R/T790M; host or cells: NCI-H1975
T2 sequence (P00533 25-1210 T790M/L858R): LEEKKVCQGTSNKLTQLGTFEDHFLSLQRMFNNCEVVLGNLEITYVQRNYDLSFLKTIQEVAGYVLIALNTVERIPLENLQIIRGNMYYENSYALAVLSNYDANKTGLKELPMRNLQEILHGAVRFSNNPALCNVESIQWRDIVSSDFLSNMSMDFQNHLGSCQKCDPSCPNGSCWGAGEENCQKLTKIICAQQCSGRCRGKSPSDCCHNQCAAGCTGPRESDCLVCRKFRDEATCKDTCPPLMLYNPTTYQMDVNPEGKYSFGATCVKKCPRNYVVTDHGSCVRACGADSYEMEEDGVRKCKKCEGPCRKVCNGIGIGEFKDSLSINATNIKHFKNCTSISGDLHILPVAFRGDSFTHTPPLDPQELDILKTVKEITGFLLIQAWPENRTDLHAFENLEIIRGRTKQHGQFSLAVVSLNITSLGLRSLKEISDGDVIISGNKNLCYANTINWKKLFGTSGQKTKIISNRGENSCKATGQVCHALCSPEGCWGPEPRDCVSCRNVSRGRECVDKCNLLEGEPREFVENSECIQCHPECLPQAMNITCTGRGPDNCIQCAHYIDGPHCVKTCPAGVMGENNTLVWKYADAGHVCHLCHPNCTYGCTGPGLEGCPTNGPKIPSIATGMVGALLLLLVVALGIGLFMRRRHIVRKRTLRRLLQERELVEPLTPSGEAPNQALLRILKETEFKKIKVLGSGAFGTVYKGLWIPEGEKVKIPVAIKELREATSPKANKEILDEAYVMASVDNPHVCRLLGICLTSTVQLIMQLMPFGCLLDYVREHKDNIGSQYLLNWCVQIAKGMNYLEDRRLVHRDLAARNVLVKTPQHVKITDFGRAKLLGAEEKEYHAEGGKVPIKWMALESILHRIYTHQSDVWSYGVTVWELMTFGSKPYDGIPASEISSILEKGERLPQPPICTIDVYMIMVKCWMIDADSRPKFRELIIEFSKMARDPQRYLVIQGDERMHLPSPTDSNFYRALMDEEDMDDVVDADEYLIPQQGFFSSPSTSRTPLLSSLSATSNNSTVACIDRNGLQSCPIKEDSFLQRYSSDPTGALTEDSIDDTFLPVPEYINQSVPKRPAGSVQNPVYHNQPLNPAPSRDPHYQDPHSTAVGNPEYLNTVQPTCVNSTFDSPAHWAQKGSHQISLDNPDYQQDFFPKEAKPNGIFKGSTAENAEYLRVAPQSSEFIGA
Nature of the series: HTRF cellular assay in human cancer cells H1975. The format is cell-based. The note with it: read-out: IC50 H1975 EGFR LRTM.

Series [1] in a line: In vitro metabolic stability, intrinsic clearance in hepatocytes. The format is in vitro ADME. The settings on record: primary pooled cryopreserved hepatocytes in suspension. As to the method: The in vitro metabolic stability was assessed in human and […] short-term hepatocytes suspensions. Primary pooled cryopreserved hepatocytes obtained from BioIVT (Westbury, NY, USA) were thawed and suspended in William's E medium supplemented with 10% fetal bovine serum. The suspended hepatocytes were pre-incubated at 37° C. (5% CO2) and reactions were initiated by adding the compound. Final assay conditions were 1 μM compound (final assay solvent concentration 0.01% DMSO), 1×10^6 hepatocytes/mL incubate. The mixtures were then incubated up to 2 hours at 37° C.′ (5% CO2). The reactions were stopped by placing samples on dry ice before storage at −80° C. until analysis by LC-MS/MS. The natural logarithm of the percentage initial drug concentration in the incubation samples was plotted against time and a linear regression analysis was applied using GraphPad Prism version 7.04 for Windows (GraphPad Software, La Jolla, CA) to define the slope. The in vitro hepatocyte intrinsic hepatocyte clearance rate (CLint) was calculated from the slope of the linear regression,-slope, with V representing the volume of the incubation in μL and N as the number of hepatocytes per incubation as detailed in Equation X: […]

The target in series [2] is T3, EGFR WT (Homo sapiens, UniProt P00533). Nature of the series: HTRF cellular assay in human cancer cells H2073. The format is cell-based. The arrangement: expressing WT EGFR; host or cells: NCI-H2073. The note with it: EGF 25 ng/ml.
T3 sequence (P00533 25-1210): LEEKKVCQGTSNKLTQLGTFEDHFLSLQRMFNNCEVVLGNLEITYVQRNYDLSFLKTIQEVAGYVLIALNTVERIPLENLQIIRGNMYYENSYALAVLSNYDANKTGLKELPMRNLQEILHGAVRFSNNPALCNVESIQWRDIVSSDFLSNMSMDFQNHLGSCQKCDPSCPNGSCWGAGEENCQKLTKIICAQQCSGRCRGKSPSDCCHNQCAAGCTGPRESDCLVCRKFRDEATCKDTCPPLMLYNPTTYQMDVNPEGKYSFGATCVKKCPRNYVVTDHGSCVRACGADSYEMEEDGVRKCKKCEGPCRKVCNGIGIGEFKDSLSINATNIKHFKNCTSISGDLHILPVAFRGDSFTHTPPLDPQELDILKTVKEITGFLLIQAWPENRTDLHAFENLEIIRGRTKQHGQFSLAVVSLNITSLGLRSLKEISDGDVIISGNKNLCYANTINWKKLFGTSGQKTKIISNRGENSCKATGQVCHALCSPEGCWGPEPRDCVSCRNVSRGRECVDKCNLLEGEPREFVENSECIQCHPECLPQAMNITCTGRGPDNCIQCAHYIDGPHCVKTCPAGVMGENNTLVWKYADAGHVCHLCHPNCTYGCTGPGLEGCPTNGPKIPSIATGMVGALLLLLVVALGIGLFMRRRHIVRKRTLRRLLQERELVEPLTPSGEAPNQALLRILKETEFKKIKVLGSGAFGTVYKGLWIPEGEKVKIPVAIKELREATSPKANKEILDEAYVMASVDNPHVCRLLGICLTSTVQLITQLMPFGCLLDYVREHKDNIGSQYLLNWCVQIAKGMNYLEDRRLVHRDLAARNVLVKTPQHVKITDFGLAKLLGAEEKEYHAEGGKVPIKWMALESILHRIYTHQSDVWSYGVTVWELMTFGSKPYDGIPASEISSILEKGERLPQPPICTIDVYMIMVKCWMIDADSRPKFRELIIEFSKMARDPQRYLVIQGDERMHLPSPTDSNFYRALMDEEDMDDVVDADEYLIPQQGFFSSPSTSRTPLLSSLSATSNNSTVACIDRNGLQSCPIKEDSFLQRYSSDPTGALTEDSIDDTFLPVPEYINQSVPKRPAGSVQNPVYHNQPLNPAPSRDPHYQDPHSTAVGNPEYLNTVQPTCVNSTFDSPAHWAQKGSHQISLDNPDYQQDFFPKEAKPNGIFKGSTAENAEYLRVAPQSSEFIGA
For series [3], the target named is T4, EGFR kinase domain (L858R) (Homo sapiens, UniProt P00533, L858R).
T4 construct: osimertinib reacts faster with the EGFR kinase domain (L858R)
T4 sequence (P00533 712-979 L858R limits assumed): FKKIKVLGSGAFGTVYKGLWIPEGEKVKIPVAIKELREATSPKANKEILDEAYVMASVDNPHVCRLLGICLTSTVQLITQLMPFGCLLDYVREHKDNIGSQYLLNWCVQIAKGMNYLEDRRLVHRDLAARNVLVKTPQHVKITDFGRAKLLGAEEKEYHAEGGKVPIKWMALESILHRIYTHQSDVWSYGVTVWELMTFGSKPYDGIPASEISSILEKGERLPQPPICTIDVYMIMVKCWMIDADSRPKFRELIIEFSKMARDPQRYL
The series is described as follows: Binding kinetics measured by stopped-flow fluorescence. The text has this:
FIG. 3 (A) Binding kinetics measured by stopped-flow fluorescence. […].

The test system of series [4] is Ba/F3 EGFR^L858R/C797S allograft. Nature of the series: In vivo efficacy, Ba/F3 EGFR^L858R/C797S allograft. The note with it: Example 6 at 10 mpk, Example 3 at 30 mpk, BID po. The arrangement: species or system mice.
Series [5] has as its target Ba/F3 cell lines stably expressing EGFR^L858R/C797S (Homo sapiens, UniProt P00533, C797S/L858R, cells depend on it). Nature of the series: Cell viability assay (cell titer glo). The settings on record: 72 hours, first value of IC50/IC90. The format is cell-based. (In general: Cellular ATP, detected with luciferase, serves as a proxy for viable cell number.)
For series [6], the target named is T3, EGFR WT. The series is described as follows: HTRF cellular assay in human cancer cells A431. The class given is cell-based. Further details: expressing WT EGFR, EGFR^L858R or EGFR^L858R/T790M; #CRL-1555 (A431); host or cells: NCI-H2073; A431. The note with it: EGF 25 ng/ml. For orientation: In TR-FRET formats the signal depends on donor and acceptor labels being close together.

The test system of series [7] is NCI-H1975 NSCLC-derived tumors (EGFR^L858R/T790M xenograft). The series is described as follows: In vivo efficacy, NCI-H1975 xenograft. The settings on record: alone and in combination with osimertinib, mice.
In series [8] the target is Ba/F3 cell lines stably expressing EGFR^L858R/T790M/C797S (Homo sapiens, UniProt P00533, T790M/C797S/L858R, cells depend on it). The series is described as follows: Cell viability assay (cell titer glo). The format is cell-based. As to the method: as §1
Sequence of Ba/F3 cell lines stably expressing EGFR^L858R/T790M/C797S (P00533 whole entry T790M/C797S/L858R): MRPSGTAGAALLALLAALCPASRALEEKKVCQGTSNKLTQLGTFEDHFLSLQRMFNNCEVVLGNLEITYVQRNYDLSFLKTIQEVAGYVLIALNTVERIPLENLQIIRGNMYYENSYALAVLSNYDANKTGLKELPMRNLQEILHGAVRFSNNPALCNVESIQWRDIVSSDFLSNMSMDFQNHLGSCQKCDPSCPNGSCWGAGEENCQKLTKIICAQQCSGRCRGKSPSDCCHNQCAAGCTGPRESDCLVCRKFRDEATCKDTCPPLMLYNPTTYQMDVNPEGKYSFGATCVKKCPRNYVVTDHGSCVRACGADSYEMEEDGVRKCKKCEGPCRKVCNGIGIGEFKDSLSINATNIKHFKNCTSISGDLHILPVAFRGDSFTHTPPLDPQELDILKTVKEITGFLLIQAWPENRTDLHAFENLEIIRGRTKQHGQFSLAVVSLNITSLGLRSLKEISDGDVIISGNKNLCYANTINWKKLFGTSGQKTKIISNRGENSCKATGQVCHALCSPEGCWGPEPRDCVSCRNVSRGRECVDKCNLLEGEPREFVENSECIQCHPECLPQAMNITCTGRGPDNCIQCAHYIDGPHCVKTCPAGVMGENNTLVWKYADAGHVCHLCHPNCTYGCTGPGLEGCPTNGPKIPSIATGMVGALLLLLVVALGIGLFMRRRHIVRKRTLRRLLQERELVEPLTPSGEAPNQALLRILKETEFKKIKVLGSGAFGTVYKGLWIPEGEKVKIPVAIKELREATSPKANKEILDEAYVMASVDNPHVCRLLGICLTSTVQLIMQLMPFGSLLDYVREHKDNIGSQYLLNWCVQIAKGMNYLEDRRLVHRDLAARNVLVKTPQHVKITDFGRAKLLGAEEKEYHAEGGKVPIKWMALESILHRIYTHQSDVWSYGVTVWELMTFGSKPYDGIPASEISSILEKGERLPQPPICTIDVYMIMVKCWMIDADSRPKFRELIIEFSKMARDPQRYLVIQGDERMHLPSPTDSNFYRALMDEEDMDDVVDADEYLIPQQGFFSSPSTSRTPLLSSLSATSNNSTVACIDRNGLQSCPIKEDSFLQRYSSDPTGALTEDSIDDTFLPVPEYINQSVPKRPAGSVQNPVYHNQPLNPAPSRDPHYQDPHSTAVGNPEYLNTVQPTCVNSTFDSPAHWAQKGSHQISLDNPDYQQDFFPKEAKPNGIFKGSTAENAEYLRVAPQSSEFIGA
Plates were incubated for 72 hours at 37° C. After treatment with compounds, 25 μl/well CellTiter-Glo 2.0 reagent (Promega #G9243) were added and plates were incubated for 10 min at RT and luminescence was quantified according to the manufacturer's protocol.

T1 sequence (P00533 25-1210 L858R): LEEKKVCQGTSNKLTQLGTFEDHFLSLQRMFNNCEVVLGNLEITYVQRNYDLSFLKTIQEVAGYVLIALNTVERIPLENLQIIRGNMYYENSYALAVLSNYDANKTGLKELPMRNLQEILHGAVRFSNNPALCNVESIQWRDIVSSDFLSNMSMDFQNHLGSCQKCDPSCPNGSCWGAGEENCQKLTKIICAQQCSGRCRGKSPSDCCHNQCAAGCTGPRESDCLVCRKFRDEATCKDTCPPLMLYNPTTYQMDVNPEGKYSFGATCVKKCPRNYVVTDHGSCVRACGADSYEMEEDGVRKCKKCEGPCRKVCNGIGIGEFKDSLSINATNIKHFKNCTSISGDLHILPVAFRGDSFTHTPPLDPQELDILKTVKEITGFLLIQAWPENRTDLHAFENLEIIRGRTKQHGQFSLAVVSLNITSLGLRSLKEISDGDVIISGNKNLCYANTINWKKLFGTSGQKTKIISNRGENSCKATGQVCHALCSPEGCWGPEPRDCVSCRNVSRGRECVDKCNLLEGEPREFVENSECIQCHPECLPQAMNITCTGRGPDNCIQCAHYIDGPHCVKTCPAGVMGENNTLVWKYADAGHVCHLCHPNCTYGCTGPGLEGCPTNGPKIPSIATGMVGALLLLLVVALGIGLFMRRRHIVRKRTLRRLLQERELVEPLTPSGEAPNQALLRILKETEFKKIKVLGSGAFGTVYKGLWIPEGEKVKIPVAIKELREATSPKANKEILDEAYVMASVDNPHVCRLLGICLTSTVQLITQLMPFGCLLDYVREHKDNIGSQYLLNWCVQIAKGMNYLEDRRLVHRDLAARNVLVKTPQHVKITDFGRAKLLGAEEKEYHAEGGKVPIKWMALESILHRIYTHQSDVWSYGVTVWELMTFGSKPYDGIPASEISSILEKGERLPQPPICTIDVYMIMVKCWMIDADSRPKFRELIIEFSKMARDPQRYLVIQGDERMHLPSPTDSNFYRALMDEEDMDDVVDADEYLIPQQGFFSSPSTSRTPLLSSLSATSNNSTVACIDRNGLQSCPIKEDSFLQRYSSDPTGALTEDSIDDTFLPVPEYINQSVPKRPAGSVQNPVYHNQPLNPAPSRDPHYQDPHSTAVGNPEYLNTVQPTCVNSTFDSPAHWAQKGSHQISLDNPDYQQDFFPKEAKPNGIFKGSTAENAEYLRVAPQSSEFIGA

Usually IC50 stands for the concentration that gives 50% inhibition. As a reminder, the hepatocyte CLint is the rate of metabolic loss divided by the concentration. A high value points to rapid turnover. Turning to `O=C(Nc1nccs1)C(c1ncn2c1C[C@@H](F)C2)n1cc2c(Cl)cc(-c3ccc(N4CCOCC4)cc3)c(Cl)c2n1` (stereo partly drawn) [Example 1, 2-[4,7-Dichloro-6-(4-morpholinophenyl)indazol-2-yl]-2-[(6R)-6-fluoro-6,7-dihydro-5H-pyrrolo[1,2-c]imidazol-1-yl]-N-thiazol-2-yl-acetamide], the IC50 at EGFR^L858R is 16 nM; on EGFR^L858R/T790M, 7 nM; at EGFR WT [2] it was roughly 2000 nM. The figures for the intrinsic clearance (hepatocyte CLint) at 1 μM in [1] (human) and in [1] (mouse) were 3.5 µL/min/1e6 cells and 16 µL/min/1e6 cells, respectively. Besides, the “increase of the residence time of osimertinib” value in series [3] (global fitting of the kinetic data, osimertinib in presence of the allosteric inhibitor) is “around 120 fold”. The “reaction of osimertinib with the EGFR kinase domain (L858R) in presence of the allosteric inhibitor” value in [3] (stopped-flow fluorescence) was “reacts faster”.
With `Cc1c(-c2ccc(N3CCOCC3)cc2)cc(C(F)F)c2cn(C(C(=O)Nc3nccs3)c3ncn4c3C[C@@H](F)C4)nc12` (stereo partly drawn) [Example 2, 2-[4-(Difluoromethyl)-7-methyl-6-(4-morpholinophenyl)indazol-2-yl]-2-[(6R)-6-fluoro-6,7-dihydro-5H-pyrrolo[1,2-c]imidazol-1-yl]-N-thiazol-2-yl-acetamide], the intrinsic metabolic clearance (hepatocyte CLint) at 1 μM amounted to 6.1 µL/min/1e6 cells in series [1] (human) and 21 µL/min/1e6 cells in series [1] (mouse).
On to `Cc1c(-c2ccc(N3CCOCC3)cc2)cc(C(F)F)c2cn(C(C(=O)Nc3nccs3)c3ncn4c3CCC43CC3)nc12` (stereo not shown) [Example 3, 2-[4-(Difluoromethyl)-7-methyl-6-(4-morpholinophenyl)indazol-2-yl]-2-spiro[6,7-dihydropyrrol[1,2-c]imidazole-5,1′-cyclopropane]-1-yl-N-thiazol-2-yl-acetamide], for which the results for the hepatocyte CLint at 1 μM in series [1] (human) and in series [1] (mouse) were 5.9 µL/min/1e6 cells and 25 µL/min/1e6 cells, respectively. Also, in [4], the “changes in body weight” value is listed as “No significant changes in body weight”.
As usually defined, the GI50 is the concentration giving 50% growth inhibition. The low end stands for greater sensitivity of the cells, the high end for lower sensitivity of the cells. `O=C(Nc1nccs1)C(c1ncn2c1CCC2)n1cc2c(F)cc(C#Cc3ccc(CN4CCC(O)CC4)cc3)cc2n1` (stereo not shown) [Example 4, 2-(6,7-Dihydro-5H-pyrrolo[1,2-c]imidazol-1-yl)-2-(4-fluoro-6-((4-((4-hydroxypiperidin-1-yl)methyl)phenyl)ethynyl)-2H-indazol-2-yl)-N-(thiazol-2-yl)acetamide] yielded a GI50 in series [5] of 800 nM.
For `Cc1c(C#Cc2ccc(CN3CCC(CO)CC3)cc2)cc(C(F)F)c2cn(C(C(=O)Nc3nccs3)c3ncn4c3CCC4)nc12` (stereo not shown) [Example 5, 2-[4-(Difluoromethyl)-6-[2-[4-[[4-(hydroxymethyl)-1-piperidyl]methyl]phenyl]ethynyl]-7-methyl-indazol-2-yl]-2-(6,7-dihydro-5H-pyrrolo[1,2-c]imidazol-1-yl)-N-thiazol-2-yl-acetamide], the hepatocyte CLint at 1 μM in series [1] (human) came out at 2.4 µL/min/1e6 cells; in series [1] (mouse), 36 µL/min/1e6 cells.
For `Cc1c(C#Cc2ccc(CN3CCC(CO)CC3)cc2)cc(C(F)F)c2cn(C(C(=O)Nc3nccs3)c3ncn4c3CCC43CC3)nc12` (stereo not shown) [Example 6], the IC50 was 577 nM at EGFR WT [6], 16 nM on EGFR^L858R, 8 nM at EGFR^L858R/T790M and 545 nM at EGFR WT [2]. Also, the values for the hepatocyte CLint at 1 μM in series [1] (human) and in [1] (mouse) were 1 µL/min/1e6 cells and 25 µL/min/1e6 cells, respectively. The “changes in body weight” value in series [7] and in [4] was “No significant changes in body weight” throughout.
In series [8] (72 hours, first value of IC50/IC90), `O=C(Nc1nccs1)C(c1cc(F)ccc1O)N1Cc2ccc(-c3ccc(N4CCNCC4)cc3)cc2C1=O` (stereo not shown) [JBJ-04-125-02, reference compound] displayed a GI50 of 30 nM. In addition, the IC90 in series [8] (read-out: Viability IC90 L858R/T790M/C797S, 72 hours, second value of IC50/IC90) came to 40 nM.
